The experiment relates to herpes simplex labialis. Briefly: In vivo topical treatment, test group A (four individuals). Also noted: species or system human. The conditions noted are these: common topical medication 5 to 6 times per day. The procedure: Antiviral performance of the composition of the present invention was evaluated in vivo. The test group A consisted of four individuals suffering from herpes simplex labialis. […] As infections were untreated, the individuals were normally healing in between 7 to 10 days. The time from initiation of the symptoms to when the patients experienced relief of pain from the affected area was between 5 to 7 days. […] The time from initiation of the symptoms to time when the patients experienced relief of pain from the affected area was 3 to 5 days.
The herpes infections of test group were treated topically with a composition containing the polyamine polymer silver complex of the present invention with the following results. The composition was applied topically to the affected areas to cover the cold sores with a coating of the composition two times a day. The time from initiation of the cold sores and treatment with the composition to complete healing averaged between about 2 to 3 days. The time from the initiation of the treatment to when the patients experienced relief of pain from the affected area was about 10 to 15 minutes after the first application.

One compound from patent US20200276107A1, “Treatment of herpes simplex symptoms on skin and mucous membrane of mammals” (priority 2017, published 2020) can be followed below.

With `Nc1nc2c(ncn2COCCO)c(=O)[nH]1` [acyclovir], the “time from initiation of the symptoms to relief of pain from the affected area” value was in the range of 3 to 5 days and the time to healing is recorded as 5 to 7 days.
